Experiments:
[1] = test system: KYSE410 cells; test: MTT assay, KYSE410; assay type: cell-based, human; details: Homo sapiens, KYSE-410; MTT, 48 h, KYSE410, n = 5; read-out: IC50 48 h KYSE410
Text: (§1) The human cancer cells (H1650, H1975, KYSE70, KYSE410 and KYSE450) were purchased from the Type Culture Collection of the Chinese Academy of Sciences (Shanghai, China). The human immortalized normal esophageal epithelial cell line SHEE was donated by Dr. Enmin Li from the Laboratory of Tumor Pathology (Shantou University Medical College, Shantou, Guangdong, China). Drug-resistant cells (H1650TR, H1975OR, KYSE70TR, KYSE410TR and KYSE450TR) were induced by China-US (Henan) Hormel Cancer Institute. The cellswere cultured in RPMI-1640 complete growth medium containing 100 U/mL penicillin-streptomycin and 10% FBS. Based on the above medium formula, 100 nm/L paclitaxel was added in taxol-resistant cells, 100 nm/L gefitinib was added in gefitinib-resistant cells. The cells were incubated at 37 °C in an atmosphere containing 5% of CO2. The compounds were dissolved in DMSO to make a 50 mM stock solution and were diluted to the concentration of working solutions with complete growth medium before administration.
(§2) Cells were seeded in 96-well plates with 2,200–2,500 cells/well in100 μL. One day after seeding, test compounds with the concentration between 0 and 50 μM were added with 0.1% DMSO as control. Five multiple wells for each concentration. After 48 h, MTT was added and incubated in the plate for 1–4 h in the incubator. The absorbance at 490 nm was measured using a microplate reader (Thermo).

[2] = test system: KYSE450 cells; test: MTT assay, KYSE450; assay type: cell-based, human; details: Homo sapiens, KYSE-450; MTT, 48 h, KYSE450, n = 5; read-out: IC50 48 h KYSE450
Text: as §1, §2

[3] = test system: H1650 cells; test: MTT assay for cell proliferation and cytotoxicity, H1650; assay type: cell-based; details: Homo sapiens, NCI-H1650, 48 h, H1650, n = 5
Text: as §1, §2

[4] = test system: H1975 cells; test: MTT assay for cell proliferation and cytotoxicity, H1975; assay type: cell-based, human; details: Homo sapiens, NCI-H1975, 48 h, MTT, 48 h, H1975, n = 5; read-out: IC50 48 h H1975
Text: as §1
as §2, with “After 48 h, MTT was added and incubated in the plate for 1–4 h in the incubator.” left out

[5] = test system: KYSE70 cells; test: MTT assay, KYSE70; assay type: cell-based, human; details: Homo sapiens, KYSE-70; MTT, 48 h, KYSE70, n = 5
Text: as §1, §2

[6] = test system: SHEE cells; test: MTT assay, normal esophageal epithelial cell line SHEE; assay type: cell-based; details: Homo sapiens, 48 h, n = 5
Text: as §1, §2

melting point [°C]	SMILES	IC50 [1] [µM]	IC50 [2] [µM]	IC50 [3] [µM]	IC50 [4] [µM]	IC50 [5] [µM]	IC50 [6] [µM]
124 to 127	Cc1ccc(Cn2cc(-c3cccc(Nc4ncnc5cc6c(cc45)OCCOCCOCCO6)c3)nn2)cc1 [compound 3o]	> 50	4.81 ± 0.36	5.6 ± 0.29	8.7 ± 0.66	14.6 ± 0.96	22.4 ± 1.26
137 to 140	Ic1ccccc1-n1cc(-c2cccc(Nc3ncnc4cc5c(cc34)OCCOCCOCCO5)c2)nn1 [compound 3h]	> 50	16.7 ± 1.31	30.6 ± 1.99	12.1 ± 0.92	18.4 ± 1.05	22.6 ± 1.19
113 to 116	Brc1cccc(Cn2cc(-c3cccc(Nc4ncnc5cc6c(cc45)OCCOCCOCCO6)c3)nn2)c1 [compound 3q]	> 50	21.8 ± 1.12	21.5 ± 1.87	47.3 ± 2.13	20.7 ± 1.73	> 50
118 to 121	Fc1ccccc1Cn1cc(-c2cccc(Nc3ncnc4cc5c(cc34)OCCOCCOCCO5)c2)nn1 [compound 3m]	> 50	> 50	> 50	47.3 ± 2.01	> 50	> 50
158 to 161	Brc1ccc(-n2cc(-c3cccc(Nc4ncnc5cc6c(cc45)OCCOCCOCCO6)c3)nn2)cc1 [compound 3j]	> 50	12.5 ± 1.22	27.6 ± 1.85	5.02 ± 0.37	50	> 50
161 to 164	Brc1ccccc1Cn1cc(-c2cccc(Nc3ncnc4cc5c(cc34)OCCOCCOCCO5)c2)nn1 [compound 3s]	19.2 ± 1.22	23.4 ± 1.13	17.1 ± 1.64	> 50	9.35 ± 0.89	14.2 ± 0.94
148 to 150	c1ccc(-n2cc(-c3cccc(Nc4ncnc5cc6c(cc45)OCCOCCOCCO6)c3)nn2)cc1 [compound 3f]	> 50	45 ± 2.53	12.3 ± 0.91	> 50	25 ± 1.53	> 50

From article PMC9709406 (Frontiers in Pharmacology, 2022)
